Like-named read-outs stand apart in the source and are kept apart here. Non-standard residues stand in square brackets, D forms with d. Residues, ends and D or L forms follow the SMILES beside them. *: point of attachment. pY = N[C@@H](Cc1ccc(OP(=O)(O)O)cc1)C(=O)O; Caffeoyl = O=C(/C=C/c1ccc(O)c(O)c1)*
Key:
[1] = target: T1, CBL (Homo sapiens, UniProt P22681); assay: biochemical; assay type: binding
T1 construct: the DNA-tagged SH2 domain concentrations used in this study were <0.1 nM; made in house; host or cells: HEK293 (transient transfection; unpurified extract)
T1 sequence (P22681 249-351 limits assumed): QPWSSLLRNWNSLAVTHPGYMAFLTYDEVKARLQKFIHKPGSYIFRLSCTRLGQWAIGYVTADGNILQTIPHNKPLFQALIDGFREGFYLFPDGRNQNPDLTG

[2] = target: T2, STAP2 (Homo sapiens, UniProt Q9UGK3); assay: biochemical; assay type: binding; conditions: for percent of DMSO vehicle control at 10 µM / remaining activity at 10 µM: read-out: percent of DMSO vehicle control
T2 construct: made in house; host or cells: HEK293 (transient transfection), unpurified extract
T2 sequence (Q9UGK3 1-403): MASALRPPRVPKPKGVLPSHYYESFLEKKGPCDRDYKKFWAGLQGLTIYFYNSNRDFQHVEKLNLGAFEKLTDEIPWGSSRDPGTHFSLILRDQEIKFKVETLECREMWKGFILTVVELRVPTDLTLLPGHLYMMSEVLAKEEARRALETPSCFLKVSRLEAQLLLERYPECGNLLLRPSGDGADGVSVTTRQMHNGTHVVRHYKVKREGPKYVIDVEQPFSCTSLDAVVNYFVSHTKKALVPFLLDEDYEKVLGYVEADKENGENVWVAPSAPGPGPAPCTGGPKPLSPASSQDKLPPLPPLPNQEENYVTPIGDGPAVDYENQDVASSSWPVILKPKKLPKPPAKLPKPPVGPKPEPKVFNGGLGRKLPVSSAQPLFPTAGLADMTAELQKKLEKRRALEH

[3] = target: T3, ZAP70(SH2dom1.dom2.) (Homo sapiens, UniProt P43403); conditions: primary screen, 10 μM
T3 sequence (P43403 1-254 limits assumed): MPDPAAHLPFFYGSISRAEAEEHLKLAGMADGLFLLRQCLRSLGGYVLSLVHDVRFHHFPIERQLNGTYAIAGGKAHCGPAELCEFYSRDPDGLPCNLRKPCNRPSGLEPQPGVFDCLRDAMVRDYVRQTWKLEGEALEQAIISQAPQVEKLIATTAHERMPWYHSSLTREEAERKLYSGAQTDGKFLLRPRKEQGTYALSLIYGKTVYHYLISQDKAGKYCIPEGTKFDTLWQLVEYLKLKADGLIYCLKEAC

[4] = test system: FYN; design: method as in Gay et al., International Journal of Cancer, 1999; conditions: ELISA; ref Gay et al., International Journal of Cancer, 1999; cited from earlier work
[5] = test system: GRB2; design: method as in Gay et al., International Journal of Cancer, 1999; conditions: ELISA; ref Gay et al., International Journal of Cancer, 1999; cited from earlier work
[6] = test system: PIK3R1 (SH2dom.N-term.); design: method as in Gay et al., International Journal of Cancer, 1999; conditions: ELISA; ref Gay et al., International Journal of Cancer, 1999; cited from earlier work
[7] = test system: PTPN11 (SH2dom.N-term.); design: method as in Gay et al., International Journal of Cancer, 1999; conditions: ELISA; ref Gay et al., International Journal of Cancer, 1999; cited from earlier work
[8] = test system: PTPN11 (SH2dom.C-term.); design: method as in Gay et al., International Journal of Cancer, 1999; conditions: ELISA; ref Gay et al., International Journal of Cancer, 1999; cited from earlier work
[9] = target: SOCS2; design: method as in Ramachandran et al., Nature Communications, 2023; conditions: ITC; ref Ramachandran et al., Nature Communications, 2023; cited from earlier work
[10] = target: STAT2; design: method as in Bai et al., Cancer Cell, 2019; conditions: FP and BLI; ref Bai et al., Cancer Cell, 2019; cited from earlier work
[11] = target: STAT4; design: method as in Bai et al., Cancer Cell, 2019; conditions: FP and BLI; ref Bai et al., Cancer Cell, 2019; cited from earlier work
[12] = target: STAT6; design: method as in Bai et al., Cancer Cell, 2019; conditions: FP and BLI; ref Bai et al., Cancer Cell, 2019; cited from earlier work
[13] = target: STAT5A; design: method as in Bai et al., Cancer Cell, 2019; conditions: FP and BLI; ref Bai et al., Cancer Cell, 2019; cited from earlier work
[14] = target: STAT3; design: method as in Bai et al., Cancer Cell, 2019; conditions: FP and BLI; ref Bai et al., Cancer Cell, 2019; cited from earlier work
[15] = target: STAT1; design: method as in Bai et al., Cancer Cell, 2019; conditions: FP and BLI; ref Bai et al., Cancer Cell, 2019; cited from earlier work
[16] = target: STAT5B; design: method as in Bai et al., Cancer Cell, 2019; conditions: FP and BLI; ref Bai et al., Cancer Cell, 2019; cited from earlier work
[17] = test system: STAT6; design: method as in Mandal et al., Journal of Medicinal Chemistry, 2015; conditions: FP; ref Mandal et al., Journal of Medicinal Chemistry, 2015; cited from earlier work
[18] = target: STAT6; design: method as in earlier work; conditions: FP; ref Elumalai et al., Angewandte Chemie International Edition, 2015; cited from earlier work
[19] = target: STAT4; design: method as in earlier work; conditions: FP; ref Elumalai et al., Angewandte Chemie International Edition, 2015; cited from earlier work
[20] = target: STAT5B; design: method as in earlier work; conditions: FP; ref Elumalai et al., Angewandte Chemie International Edition, 2015; cited from earlier work

CC[C@H](C)[C@H](NC(=O)[C@H](CCC(=O)O)NC(=O)[C@H](CCC(=O)O)NC(=O)[C@H](Cc1ccc(OP(=O)(O)O)cc1)NC(C)=O)C(=O)N[C@@H](CCC(=O)O)C(N)=O [Ac-pYEEIE-NH2] (Ac-[pY]EEIE-NH2)
percent of DMSO vehicle control ([1]; primary screen, 10 μM): 121.6%
percent of DMSO vehicle control ([2]; primary screen, 10 μM): 80.1±5.7%
percent of DMSO vehicle control [3]: 134.0%

CC(=O)N[C@@H](Cc1ccc(CP(=O)(O)O)cc1)C(=O)NC1(C(=O)N[C@@H](CC(N)=O)C(=O)NCCCc2c(O)ccc3ccccc23)CCCCC1 [CGP78850]
IC50 [4]: > 50 µM
IC50 [5]: 0.04 µM
IC50 [6]: > 50 µM
IC50 [7]: > 50 µM
IC50 [8]: > 50 µM
percent of DMSO vehicle control at 10 µM [2]: 86 ± 7.4%

CC[C@H](C)[C@H](NC(=O)[C@H](CCC(=O)O)NC(=O)[C@H](CCC(=O)O)NC(=O)[C@H](Cc1ccc(OP(=O)(O)O)cc1)NC(=O)/C=C/c1ccc(O)c(O)c1)C(=O)N[C@@H](CCC(=O)O)C(=O)O [Caffeic acid-pYEEIE] (Caffeoyl-[pY]EEIE-OH)
Kd [1]: 11 µM
Kd [2]: 23.2 µM
percent of DMSO vehicle control at 10 µM [2]: 58.7 ± 7.4%

O=C(CCl)Nc1cccc(CNC(=O)[C@H](Cc2ccc(OP(=O)(O)O)cc2)NC(=O)Cc2ccc(F)cc2)c1 [MN551]
Kd [9]: 2.18 µM
remaining activity at 10 µM ([2]; primary screen, 10 μM): 143%

NC(=O)CC[C@H](NC(=O)[C@@H]1CC[C@@H]2CCN(C(=O)CCCCCC#Cc3cccc4c3CN(C3CCC(=O)NC3=O)C4=O)C[C@H](NC(=O)c3cc4cc(C(F)(F)P(=O)(O)O)ccc4[nH]3)C(=O)N21)C(=O)NC(c1ccccc1)c1ccccc1 (some centres unmarked) [SD-36]
Kd [10]: 4.88 µM
Kd [11]: 0.804 µM
Kd [12]: 11.3 µM
Kd [13]: 6.18 µM
Kd [14]: 0.0444 µM
percent of DMSO vehicle control at 10 µM [2]: 36.1 ± 5.4%
Kd [15]: 1.09 µM
Kd [16]: 11.7 µM

CC(=O)N1CC[C@H]2CC[C@@H](C(=O)N[C@@H](CCC(N)=O)C(=O)NC(c3ccccc3)c3ccccc3)N2C(=O)[C@@H](NC(=O)c2cc3cc(C(F)(F)P(=O)(O)O)ccc3[nH]2)C1 [SI-109]
Kd [10]: 6.63 µM
Kd [11]: 1.98 µM
Kd [12]: 3.37 µM
Kd [14]: 0.0512 µM
percent of DMSO vehicle control at 10 µM [2]: 130%
Kd [15]: 1.27 µM

C/C(=C\C(=O)N[C@H](C(=O)N1CCC[C@H]1C(=O)N(c1ccccc1)c1ccc(I)cc1)C(C)(C)C)c1ccc(OP(=O)(O)O)cc1 [STAT6-IN-1]
IC50 [17]: 0.028 µM
Kd [1]: 8.1 ± 1.3 µM
Kd ([2]; dose-response, read-out: KD): 16.3 µM
remaining activity at 10 µM ([2]; primary screen, 10 μM): 58.4 ± 51.4%

CC(C)(C)[C@H](NC(=O)/C=C/c1ccc(OP(=O)(O)O)cc1)C(=O)N1CCC[C@H]1C(=O)N(c1ccccc1)c1ccc(I)cc1 [STAT6-IN-3]
IC50 [17]: 0.044 µM
remaining activity at 10 µM ([2]; primary screen, 10 μM): 56.9 ± 15.1%

O=C(COc1ccc2cc(C(=O)Nc3ccccc3)ccc2c1)NCc1ccc(OP(=O)(O)O)c(OP(=O)(O)O)c1 [Stafib-1]
Ki [18]: 3.47 µM
Ki [19]: 3.29 µM
Ki [20]: 0.044 µM
remaining activity at 10 µM ([2]; primary screen, 10 μM): 78.7 ± 36.1%
